In ChEMBL document CHEMBL5550205, “Discovery of a NCOA4 Degrader for Labile Iron-Dependent Ferroptosis Inhibition” (J Med Chem, 2024):
Active and inactive are the calls of the source. The calls are words filed in the database; no cut-off is given here.

Columns and labels:
[1] = test system: AML12; test: Downregulation of MDA level in mouse AML12 cells measured for 36 hrs; assay type: functional, cell-based; settings: dose <= 10.0 µM
[2] = test system: AML12; test: Protection against CCl4-induced ferroptosis in mouse AML12 cells assessed as reduction in ptgs2 mRNA level at 200 to 1000 nM measured for 36 hrs by qRT-PCR analysis; assay type: functional, cell-based; settings: dose 200-1000 nM
[3] = test system: Mus musculus; test: Inhibition of CCl4-induced ferroptosis in acute liver injury C57BL/6 mouse model assessed as reduction in necrosis at 10 to 30 mg/kg, ip pretreated with compound for 3 hrs followed by CCl4 induction and measured after 12 to 24 hrs by H and E staining based analysis; assay type: functional, organism-based; settings: dose 10-30 mg/kg, time 15-27 hrs
[4] = test system: Mus musculus; test: Inhibition of CCl4-induced ferroptosis in acute liver injury C57BL/6 mouse model assessed as downregulation of NCOA4 level at 10 to 30 mg/kg, ip pretreated with compound for 3 hrs followed by CCl4 induction and measured after 12 to 24 hrs by Western blot analysis; assay type: functional, organism-based; settings: dose 10-30 mg/kg, time 15-27 hrs
[5] = test system: AML12; test: Protection against CCl4-induced ferroptosis in mouse AML12 cells assessed as reduction in MDA content at 200 to 1000 nM measured for 36 hrs; assay type: functional, cell-based; settings: dose 200-1000 nM
[6] = test system: AML12; test: Protection against FINO2-induced ferroptosis in mouse AML12 cells assessed as attenuation of Fe2+ level by fluorescence imaging analysis; assay type: functional, cell-based
[7] = test system: Mus musculus; test: Inhibition of CCl4-induced ferroptosis in acute liver injury C57BL/6 mouse model assessed as reduction in ptgs2 mRNA level in liver at 10 to 30 mg/kg, ip pretreated with compound for 3 hrs followed by CCl4 induction and measured after 12 to 24 hrs; assay type: functional, organism-based; settings: dose 10-30 mg/kg, time 15-27 hrs
[8] = test system: AML12; test: Protection against CCl4-induced ferroptosis in mouse AML12 cells assessed as reduction in ROS production at 200 to 1000 nM measured for 36 hrs; assay type: functional, cell-based; settings: dose 200-1000 nM
[9] = test system: AML12; test: Protection against RSL3-induced ferroptosis in mouse AML12 cells assessed as attenuation of Fe2+ level by fluorescence imaging analysis; assay type: functional, cell-based
[10] = test system: AML12; test: Downregulation of lipid hydroperoxide level in mouse AML12 cells at 200 nM measured for 36 hrs; assay type: functional, cell-based
[11] = test system: AML12; test: Upregulation of FTH1 level in mouse AML12 cells incubated for 24 hrs by Western blot analysis; assay type: functional, cell-based; settings: dose <= 10.0 µM
[12] = test system: AML12; test: Protection against iFSP1-induced ferroptosis in mouse AML12 cells assessed as reduction in lipid peroxidation level at 200 nM measured for 48 hrs; assay type: functional, cell-based
[13] = test system: Mus musculus; test: Inhibition of CCl4-induced ferroptosis in acute liver injury C57BL/6 mouse model assessed as reduction in IL-6 level in serum at 10 to 30 mg/kg, ip pretreated with compound for 3 hrs followed by CCl4 induction and measured after 12 to 24 hrs by ELISA analysis; assay type: functional, organism-based; settings: dose 10-30 mg/kg, time 15-27 hrs
[14] = test system: Mus musculus; test: Inhibition of CCl4-induced ferroptosis in acute liver injury C57BL/6 mouse model assessed as reduction in MDA content in liver at 10 to 30 mg/kg, ip pretreated with compound for 3 hrs followed by CCl4 induction and measured after 12 to 24 hrs; assay type: functional, organism-based; settings: dose 10-30 mg/kg, time 15-27 hrs
[15] = test system: AML12; test: Protection against FINO2-induced ferroptosis in mouse AML12 cells assessed as increase in cell viability at 200 nM measured for 48 hrs by cell counting-lite 2.0 analysis; assay type: functional, cell-based
[16] = test system: AML12; test: Protection against FINO2-induced ferroptosis in mouse AML12 cells assessed as reduction in lipid peroxidation level at 200 nM measured for 48 hrs; assay type: functional, cell-based
[17] = test system: Mus musculus; test: Inhibition of CCl4-induced ferroptosis in acute liver injury C57BL/6 mouse model assessed as inhibition of AST level at 10 to 30 mg/kg, ip pretreated with compound for 3 hrs followed by CCl4 induction and measured after 12 to 24 hrs; assay type: functional, organism-based; settings: dose 10-30 mg/kg, time 15-27 hrs
[18] = target: T1, von Hippel-Lindau disease tumor suppressor/Nuclear receptor coactivator 4 (Homo sapiens, UniProt P40337+Q13772); test: PROTAC activity at NCOA4/VHL in human HeLa cells assessed as induction of NCOA4 degradation at 50 nM measured 36 to 48 hrs by Western blot analysis; assay type: cell-based; settings: time 36-48 hrs
Target sequence in this assay (P40337 whole entry, looked up): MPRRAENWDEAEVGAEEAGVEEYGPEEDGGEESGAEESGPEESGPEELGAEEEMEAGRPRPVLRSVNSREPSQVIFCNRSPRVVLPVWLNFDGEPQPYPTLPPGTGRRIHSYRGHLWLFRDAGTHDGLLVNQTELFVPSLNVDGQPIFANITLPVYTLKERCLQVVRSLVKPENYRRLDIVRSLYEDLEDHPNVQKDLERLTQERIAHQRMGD
Target sequence in this assay (Q13772 whole entry, looked up): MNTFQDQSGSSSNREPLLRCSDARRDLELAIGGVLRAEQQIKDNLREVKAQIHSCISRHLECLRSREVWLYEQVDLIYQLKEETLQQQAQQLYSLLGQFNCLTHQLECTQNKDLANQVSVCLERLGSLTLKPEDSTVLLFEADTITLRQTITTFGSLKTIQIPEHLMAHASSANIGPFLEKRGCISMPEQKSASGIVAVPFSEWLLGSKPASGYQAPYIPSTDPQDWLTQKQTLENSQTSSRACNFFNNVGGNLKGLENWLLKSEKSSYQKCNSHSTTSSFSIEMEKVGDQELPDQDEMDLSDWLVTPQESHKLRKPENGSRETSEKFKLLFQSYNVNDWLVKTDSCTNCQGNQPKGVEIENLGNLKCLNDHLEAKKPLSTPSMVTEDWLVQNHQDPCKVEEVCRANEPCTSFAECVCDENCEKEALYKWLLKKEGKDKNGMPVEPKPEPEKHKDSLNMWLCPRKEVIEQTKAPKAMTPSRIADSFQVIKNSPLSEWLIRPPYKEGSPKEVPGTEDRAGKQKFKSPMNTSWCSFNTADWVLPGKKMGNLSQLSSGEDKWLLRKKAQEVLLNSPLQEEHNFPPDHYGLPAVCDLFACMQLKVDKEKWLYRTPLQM

[19] = test system: AML12; test: Protection against CCl4-induced ferroptosis in mouse AML12 cells assessed as cell viability in presence of Ferrostatin-1; assay type: functional, cell-based
[20] = test system: Mus musculus; test: Inhibition of CCl4-induced ferroptosis in acute liver injury C57BL/6 mouse model assessed as decrease in TNF-alpha expression in liver at 10 to 30 mg/kg, ip pretreated with compound for 3 hrs followed by CCl4 induction and measured after 12 to 24 hrs by q-PCR analysis; assay type: functional, organism-based; settings: dose 10-30 mg/kg, time 15-27 hrs
[21] = test system: Mus musculus; test: Inhibition of CCl4-induced ferroptosis in acute liver injury C57BL/6 mouse model assessed as reduction in IL-1beta level in serum at 10 to 30 mg/kg, ip pretreated with compound for 3 hrs followed by CCl4 induction and measured after 12 to 24 hrs by ELISA analysis; assay type: functional, organism-based; settings: dose 10-30 mg/kg, time 15-27 hrs
[22] = test system: Mus musculus; test: Inhibition of CCl4-induced ferroptosis in acute liver injury C57BL/6 mouse model assessed as decrease in IL-1beta expression in liver at 10 to 30 mg/kg, ip pretreated with compound for 3 hrs followed by CCl4 induction and measured after 12 to 24 hrs by q-PCR analysis; assay type: functional, organism-based; settings: dose 10-30 mg/kg, time 15-27 hrs
[23] = test system: Mus musculus; test: Inhibition of CCl4-induced ferroptosis in acute liver injury C57BL/6 mouse model assessed as downregulation of FTH1 level at 10 to 30 mg/kg, ip pretreated with compound for 3 hrs followed by CCl4 induction and measured after 12 to 24 hrs by Western blot analysis; assay type: functional, organism-based; settings: dose 10-30 mg/kg, time 15-27 hrs
[24] = test system: AML12; test: Protection against Brequinal-induced ferroptosis in mouse AML12 cells assessed as attenuation of Fe2+ level by fluorescence imaging analysis; assay type: functional, cell-based
[25] = test system: AML12; test: Protection against RSL3-induced ferroptosis in mouse AML12 cells assessed as reduction in lipid peroxidation level at 200 nM measured for 48 hrs; assay type: functional, cell-based
[26] = target: T1, von Hippel-Lindau disease tumor suppressor/Nuclear receptor coactivator 4; test: PROTAC activity at NCOA4/VHL in human HeLa cells assessed as induction of NCOA4 degradation measured for 24 hrs by Western blot analysis; assay type: cell-based
Target sequence in this assay (P40337 whole entry): as the sequence (P40337 whole entry, looked up) above
Target sequence in this assay (Q13772 whole entry): as the sequence (Q13772 whole entry, looked up) above

[27] = test system: AML12; test: Protection against CCl4-induced ferroptosis in mouse AML12 cells assessed as cell viability in presence of Deferoxamine; assay type: functional, cell-based

Activity [18]: Active | DC50 [26]: 3 nM
Compound: Cc1ncsc1-c1ccc(CNC(=O)[C@@H]2C[C@@H](O)CN2C(=O)[C@H](NC(=O)CCCC(=O)NCCOCCOCCOCCOc2ccc3c(c2)CCN(c2cccc(-c4nc5ccc(N6CCN(C)CC6)cc5[nH]4)c2)C3)C(C)(C)C)cc1
Activity [1]: Dose-Dependent Effect | Activity [2]: Active | inhibition [3]: Active | inhibition [4]: Active | Activity [5]: Active | Activity [6]: Active | inhibition [7]: Active | Activity [8]: Active | Activity [9]: Active | Activity [10]: Active | Activity [11]: Dose-Dependent Effect | Activity [12]: Active | inhibition [13]: Active | inhibition [14]: Active | Activity [15]: Active | Activity [16]: Active | inhibition [17]: Active | EC50 [19]: 9 nM | inhibition [20]: Active | inhibition [21]: Active | inhibition [22]: Active | inhibition [23]: Active | Activity [24]: Active | Activity [25]: Active | EC50 [27]: 410 nM
